Data reported in paper PMC10458458, “Characterization of Anticancer Effects of the Analogs of DJ4, a Novel Selective Inhibitor of ROCK and MRCK Kinases” (Pharmaceuticals, 2023).

Legend:
Assay in all cases: NCI-60 screen (SRB)
Type in all cases: cell-based, human
A498 = A498 (Renal Cancer), 10 µM, 48 h; negative = cell death vs time zero
Description: (§1) The selected active compounds were screened at NCI, as a part of In Vitro Cell Line Screening Project (IVCLSP), for their effect on cell growth in 60 different cancer cell lines. The 60 human cancer cell line panel included leukemia, melanoma, non-small cell lung cancer, colon, central nervous system (CNS), ovarian, renal, prostate, and breast cancer cell lines. The detailed procedure and applications of NCI-60 cell line screening can be found at https://dtp.cancer.gov/discovery_development/nci-60/default.htm (accessed on 9 January 2023). Briefly, cells were plated in 96-well plates and incubated for 24 h. One set of cells was fixed with trichloroacetic acid at time 0 h (Tz), and SRB (sulphorhodamine B) assays were performed to quantify the cells. The remaining set of cells were treated with 10 µM single concentration of each compound and incubated for 48 h (Te) after which the cells were fixed, and the SRB assays were performed. Data are presented as percent growth relative to the control as 100% according to the following calculations:
(§2) When Te >/= Tz. Growth(%)=Te−Tz/C−Tz∗100 and when Te < Tz. (1) Growth(%)=Te−Tz/Tz∗100
(§3) Values between 0–100 indicate cell growth, zero (0) indicates no cell growth, values < 0 indicate cell death.

BT-549 = BT-549 (Breast Cancer), 10 µM, 48 h; negative = cell death vs time zero
Description: as §1, §2, §3

COLO 205 = COLO 205 (Colon Cancer), 10 µM, 48 h; negative = cell death vs time zero
Description: as §1, §2, §3

HCC-2998 = conditions: for percent cell growth: HCC-2998 (Colon Cancer), negative = cell death vs time zero
Description: as §1, §2, §3

HCT-15 = HCT-15 (Colon Cancer), 10 µM, 48 h; negative = cell death vs time zero
Description: as §1, §2, §3

HL-60(TB) = HL-60(TB) (Leukemia), 10 µM, 48 h; negative = cell death vs time zero
Description: as §1, §2, §3

HOP-62 = HOP-62 (Non-Small Cell Lung Cancer), 10 µM, 48 h; negative = cell death vs time zero
Description: as §1, §2, §3

HOP-92 = HOP-92 (Non-Small Cell Lung Cancer), 10 µM, 48 h; negative = cell death vs time zero
Description: as §1, §2, §3

K-562 = conditions: 10 µM, 48 h; for percent cell growth: K-562 (Leukemia), negative = cell death vs time zero; for increase in cell number: K-562 (leukemia)
Description: as §1, §2, §3

MALME-3M = conditions: 10 µM, 48 h; for percent cell growth: MALME-3M (Melanoma), negative = cell death vs time zero
Description: as §1, §2, §3

MCF7 = MCF7 (Breast Cancer), 10 µM, 48 h; negative = cell death vs time zero
Description: as §1, §2, §3

MDA-MB-468 = MDA-MB-468 (Breast Cancer), 10 µM, 48 h; negative = cell death vs time zero
Description: as §1, §2, §3

MOLT-4 = MOLT-4 (Leukemia), 10 µM, 48 h; negative = cell death vs time zero
Description: as §1, §2, §3

NCI-H226 = NCI-H226 (Non-Small Cell Lung Cancer), 10 µM, 48 h; negative = cell death vs time zero
Description: as §1, §2, §3

OVCAR-4 = OVCAR-4 (Ovarian Cancer), 10 µM, 48 h; negative = cell death vs time zero
Description: as §1, §2, §3

OVCAR-5 = OVCAR-5 (Ovarian Cancer), 10 µM, 48 h; negative = cell death vs time zero
Description: as §1, §2, §3

PC-3 = PC-3 (Prostate Cancer), 10 µM, 48 h; negative = cell death vs time zero
Description: as §1, §2, §3

RPMI-8226 = conditions: 10 µM, 48 h; for percent cell growth: RPMI-8226 (Leukemia), negative = cell death vs time zero; for increase in cell number: RPMI-8226 (leukemia)
Description: as §1, §2, §3

SF-295 = SF-295 (CNS Cancer), 10 µM, 48 h; negative = cell death vs time zero
Description: as §1, §2, §3

SF-539 = conditions: 10 µM, 48 h; for percent cell growth: SF-539 (CNS Cancer), negative = cell death vs time zero
Description: as §1, §2, §3

SK-MEL-5 = SK-MEL-5 (Melanoma), 10 µM, 48 h; negative = cell death vs time zero
Description: as §1, §2, §3

SN12C = SN12C (Renal Cancer), 10 µM, 48 h; negative = cell death vs time zero
Description: as §1, §2, §3

SNB-75 = conditions: 10 µM, 48 h; for percent cell growth: SNB-75 (CNS Cancer), negative = cell death vs time zero
Description: as §1, §2, §3

SR = SR (Leukemia), 10 µM, 48 h; negative = cell death vs time zero
Description: as §1, §2, §3

T-47D = T-47D (Breast Cancer), 10 µM, 48 h; negative = cell death vs time zero
Description: as §1, §2, §3

UACC-257 = UACC-257 (Melanoma), 10 µM, 48 h; negative = cell death vs time zero
Description: as §1, §2, §3

UACC-62 = UACC-62 (Melanoma), 10 µM, 48 h; negative = cell death vs time zero
Description: as §1, §2, §3

Compound | percent cell growth (A498) [%] | percent cell growth (BT-549) [%] | percent cell growth (COLO 205) [%] | percent cell growth (HCC-2998; 10 µM, 48 h) [%] | percent cell growth (HCT-15) [%] | percent cell growth (HL-60(TB)) [%] | percent cell growth (HOP-62) [%] | percent cell growth (HOP-92) [%] | percent cell growth (K-562) [%] | percent cell growth (MALME-3M) [%] | percent cell growth (MCF7) [%] | percent cell growth (MDA-MB-468) [%] | percent cell growth (MOLT-4) [%] | percent cell growth (NCI-H226) [%] | percent cell growth (OVCAR-4) [%] | percent cell growth (OVCAR-5) [%] | percent cell growth (PC-3) [%] | percent cell growth (RPMI-8226) [%] | percent cell growth (SF-295) [%] | percent cell growth (SF-539) [%] | also measured
CC/N=C1\NC(=O)/C(=C\c2c[nH]c3ncccc23)S1 [DJE4] | −54.2 | −50.4 | −33.3 | 10.2 | 16.0 | −22.4 | −26.5 | 4.4 | 26.3 | −6.2 | 4.0 | −34.7 | −6.0 | 10.8 | 19.5 | 8.7 | 2.3 | 29.1 | 5.0 | −64.2 | increase in cell number (K-562): 26%; increase in cell number (RPMI-8226): 29%; percent cell growth (SK-MEL-5): 9.2%; percent cell growth (SN12C): 12.6%; percent cell growth (SNB-75): −71.8%; percent cell growth (SR): 0.4%; percent cell growth (T-47D): −9.7%; percent cell growth (UACC-257): −15.9%; percent cell growth (UACC-62): −16.0%
O=C1N/C(=N\CCc2ccccc2)S/C1=C/c1c[nH]c2ncccc12 [DJ4] | −7.6 | −7.9 | 4.8 | 53.9 | 36.5 | 6.8 | 19.9 | −9.7 | 29.9 | 30.6 | 4.0 | −14.5 | 11.4 | 3.3 | 23.8 | 37.8 | 25.9 | 39.2 | 22.6 | 0.4 | IC50 (HCC-2998; Homo sapiens, HCC-2998 colon cancer cells, NCI-60 screen): > 10 µM; percent cell growth (SK-MEL-5): 14.5%; percent cell growth (SN12C): 15.9%; percent cell growth (SNB-75): −10.9%; percent cell growth (SR): 5.6%; percent cell growth (T-47D): 2.6%; percent cell growth (UACC-257): 14.6%; percent cell growth (UACC-62): −1.4%
Cl.O=C1NC(=NCCc2ccccc2)SC1=Cc1c[nH]c2ncccc12 (mixture of isomers) [DJ4-HCl] | −21.3 | 5.3 | −6.8 | 66.2 | 33.5 | −6.6 | −3.0 | 11.8 | 28.5 | 44.8 | 2.0 | −2.1 | 8.6 | 22.4 | 32.3 | 18.1 | 19.2 | 38.7 | 18.7 | −37.2 | percent cell growth (SK-MEL-5): −0.2%; percent cell growth (SN12C): 33.5%; percent cell growth (SNB-75): −13.3%; percent cell growth (SR): −1.5%; percent cell growth (T-47D): −1.3%; percent cell growth (UACC-257): −1.7%; percent cell growth (UACC-62): −1.3%
C=CC/N=C1\NC(=O)/C(=C\c2c[nH]c3ncccc23)S1 [DJ-Allyl] | −34.5 | −29.5 | −20.1 | 44.6 | 24.7 | −14.5 | −10.8 | −1.9 | 42.1 | 40.2 | 3.5 | 1.0 | 5.8 | 10.7 | 34.7 | 5.3 | 12.6 | 42.7 | 13.0 | −66.2 | increase in cell number (HCC-2998; HCC-2998 (colon), 10 µM, 48 h): ~ 40%; increase in cell number (K-562): ~ 40%; increase in cell number (MALME-3M; MALME-3M (melanoma)): ~ 40%; increase in cell number (RPMI-8226): ~ 40%; reduction in cell number (SF-539; SF-539 (CNS)): 60%; percent cell growth (SK-MEL-5): 2.0%; percent cell growth (SN12C): 24.0%; percent cell growth (SNB-75): −67.3%; reduction in cell number (SNB-75; SNB-75 (CNS)): 60%; percent cell growth (SR): −9.5%; percent cell growth (T-47D): −8.7%; percent cell growth (UACC-257): 9.6%; percent cell growth (UACC-62): 9.8%
